Patent publication US20130203635A1, “NUCLEIC ACID LIGATION METHOD” (priority 2012, published 2013)
“Also recorded” adds a separate entry of the source.

B1: C78A: E. coli RtcB with Cys78→Ala78 substitution within predicted metal-binding site (protein, UniProt P46850 1-408, looked up, variant C78A)
RNA-splicing ligase RtcB: MNYELLTTENAPVKMWTKGVPVEADARQQLINTAKMPFIFKHIAVMPDVHLGKGSTIGSVIPTKGAIIPAAVGVDIGAGMNALRTALTAEDLPENLAELRQAIETAVPHGRTTGRCKRDKGAWENPPVNVDAKWAELEAGYQWLTQKYPRFLNTNNYKHLGTLGTGNHFIEICLDESDQVWIMLHSGSRGIGNAIGTYFIDLAQKEMQETLETLPSRDLAYFMEGTEYFDDYLKAVAWAQLFASLNRDAMMENVVTALQSITQKTVRQPQTLAMEEINCHHNYVQKEQHFGEEIYVTRKGAVSARAGQYGIIPGSMGAKSFIVRGLGNEESFCSCSHGAGRVMSRTKAKKLFSVEDQIRATAHVECRKDAEVIDEIPMAYKDIDAVMAAQSDLVEVIYTLRQVVCVKG
B2: Archease: Pyrococcus horikoshii Archease (SEQ ID NO:9; UniProt O59205), N-terminal hexahistidine tag (protein, listed as Pyrococcus horikoshii)
chain: MKKWEHYEHTADIGIRGYGDSLEEAFEAVAIALFDVMVNVNKVEKKEVREIEVEAEDLEALLYSFLEELLVIHDIEGLVFRDFEVKIERVNGKYRLRAKAYGEKLDLKKHEPKEEVKAITYHDMKIERLPNGKWMAQLVPDI
modifications: N-terminal His6 tag
B3: C98A: P. horikoshii RtcB with Cys98→Ala98 substitution within predicted metal-binding site (protein, UniProt O59245 1-871, looked up, variant C98A)
chain: MVVPLKRIDKIRWEIPKFDKRMRVPGRVYADEVLLEKMKNDRTLEQATNVAMLPGIYKYSIVMPDGHQGYGFPIGGVAAFDVKEGVISPGGIGYDINALAPGTRVLTEHGYWLKIEEMPEKFKLQRLRVYNIEEGHNDFSKVVFVAEREVGSEEKAIRIVTESGKVIEGSEDHPVLTPEGYVYLRNVKEGDYILVYPFEGVPYEEKKGVILDESAFEGEDPQVVKFLRERNLIPLQWKDPKVGILARILGFALANGYISENDNLTFHGKEEVLREVRKDLEELGIEAIVAEEDKLKVTSREFAFLLEKLGMAHDSIPEWIIEGPLWIKRNFLAGLFGANGSIVEFKGDVPLPITLTHSRELLNDVSRILEGFKVRAKIKMGKNGSYQLVIEDEDSIRNFLGRINYEYDPEKKARGLIAYAYLKFKELMKGNLMTFEEFARDRGYEGGFVAEKVIEVKSVKPEYDKFYDIGVYHSAHNFIANGIVVHNCGVRLIRTNLTEKEVRPRIKQLVDTLFKNVPSGVGSQGRIKLHWTQIDDVLVDGAKWAVDNGYGWERDLERLEEGGRMEGADPEAVSQRAKQRGAPQLGSLGSGNHFLEVQVVDKIFDPEVAKAYGLFEGQVVVMVHTGSRGLGHQVASDYLRIMERAIRKYRIPWPDRELVSVPFQSEEGQRYFSAMKAAANFAWANRQMITHWVRESFQEVFKQDPEGDLGMDIVYDVAHNIGKVEEHEVDGKRVKVIVHRKGATRAFPPGHEAVPRLYRDVGQPVLIPGSMGTASYILAGTEGAMKETFGSTCHGAGRVLSRKAATRQYRGDRIRQELLNRGIYVRAASMRVVAEEAPGAYKNVDNVVKVVSEAGIAKLVARMRPIGVAKG

Legend:
[1] = tested on: Escherichia coli RtcB ligase; test: E. coli RtcB RNA ligation assay (3′-P and 5′-OH termini, urea-polyacrylamide gel); assay type: biochemical; conditions: for use as cofactor in ligation of 3′-P and 5′-OH RNA termini: in place of GTP, tRNA anticodon stem-loop mimic substrate, with Mn2+ (FIG. 1B, 1C)
Source text: FIG. 1. […] (A) RNA ligation substrate that mimics a broken tRNA anti-codon. FAM label allows visualization in a urea-polyacrylamide gel. […] (B) Cofactor- and metal-dependence of ligation. Reactions contain manganese, except in the “—Mn^2+” lane. The lane labeled “C78A” is a ligation reaction performed with RtcB that has a C78A substitution within the predicted metal binding site. (C) Ligation assays using GTP analogues as cofactors. […] (E) RNA termini specificity of RtcB. Modifications to the ligatable ends of the tRNA mimic substrate were made as indicated and tested in ligation reactions.
To assay for ligation, we initially used two single-stranded RNA (ssRNA) oligos that were each 10 nucleotides in length. The 5′ RNA fragment was labeled with 6-carboxyfluorescein (FAM) at its 5′ end and phosphorylated at its 3′ end. The 3′ RNA fragment had hydroxyl groups at each end. We intended to convert the 3′-P into a 2′,3′-cyclic phosphate by incubation with RtcA and ATP, so as to produce a suitable substrate for RtcB.
These reactions were performed with high concentrations of GTP analogues to ensure saturation of RtcB.
We investigated the RNA termini structure requirements for ligation by modifying the ends of our tRNA mimic substrate. First, all four combinations of either a phosphate or hydroxyl group at each termini were sampled while maintaining a 2′-OH on the 5′ side of the ligation junction. […] Next, the importance of the terminal ribose 2′-OH for ligation was probed by replacing this hydroxyl group with either hydrogen (2′-H) or fluorine (2′-F).

P. horikoshii RtcB = P. horikoshii RtcB RNA ligation assay; assay type: biochemical, Pyrococcus horikoshii; conditions: for use as cofactor in RNA ligation with Archease: Archease 0.25 μM, NTP 100 μM, RtcB 5 μM (FIG. 10B, 11B)
Source text: FIG. 2. P. horikoshii RtcB catalyzed ligation of 3′-P and 5′-OH RNA termini. P. horikoshii RtcB requires Mn^2+ and GTP for ligation. […] The lane labeled “2′-deoxy” is a ligation reaction using the tRNA mimic substrate but with a 3′-P/2′-H termini on its 5′ fragment. The lane labeled “C98A” is a ligation reaction with RtcB that has a C98A substitution within the predicted metal-binding site.
RtcB from the archaeal domain of life likewise catalyzes the GTP-dependent ligation of 3′-P and 5′-OH RNA termini. The crystal structure of RtcB from a hyperthermophilic archaeon, Pyrococcus horikoshii, was determined as part of a structural genomics project (21). […] The P. horikoshii homologue has 29% amino-acid sequence identity to E. coli RtcB, and 49% identity to the human ligase (HSPC117). To investigate if RtcB from archaea catalyzes the GTP-dependent ligation of 3′-P and 5′-OH RNA termini, we synthesized a P. horikoshii rtcB gene and produced soluble enzyme in E. coli. […] The P. horikoshii ligase also required a 2′-OH on the terminal nucleotide of the 5′ RNA fragment.
RNA Ligation Assay. Ligation assays with single-stranded RNA as the substrate used two 10-nt oligonucleotides that were synthesized by Integrated DNA Technologies (15). […] The 3′ RNA fragment had hydroxyl groups on each end. The sequence of the 5′ fragment was FAM-5′-AAAUAACAAA-3′-P (SEQ ID NO:6) and the sequence of the 3′ RNA fragment was 5′-AAAUAACAAA-3′ (SEQ ID NO:6). Ligation reactions were performed in 10-μL solutions consisting of 50 mM Bis-Tris buffer, pH 7.0, containing NaCl (300 mM), […] (0.25 mM), GTP (100 μM), each RNA fragment (1 μM), and RtcB (10 μM). Reaction mixtures were incubated at 70° C. for 1 h prior to the addition of water (40 μL) and RNA-loading buffer (50 μL). Reaction mixtures were subjected to electrophoresis and visualized as previously described in the previous examples.
The ability of Archease to activate P. horikoshii RtcB was tested in reactions using ssRNA substrates. Ligation reactions included a 10-nt 5′ RNA fragment and a 10-nt 3′ RNA fragment. […] The 3′ RNA fragment had hydroxyl groups on each end. The sequence of the 5′ fragment was FAM-5′-AAAUAACAAA-3′-P (SEQ ID NO:6) and the sequence of the 3′ RNA fragment was 5′-AAAUAACAAA-3′ (SEQ ID NO:6). Ligation reactions were performed in 50-μL solutions consisting of 50 mM Tris-HCl buffer, pH 7.4, containing NaCl (300 mM), MnCl2 (0.25 mM), GTP (100 μM), RNA fragments (100 pmol of each), and P. horikoshii RtcB (5 μM).
Ligation reaction mixtures were set up as described above, and each was divided into two tubes. No Archease was added to one set of reaction mixtures (FIG. 10A), and Archease was added to a concentration of 0.25 μM to the other set (FIG. 10B). […] Archease had no effect on ligation reactions that used 2′-F RNA.
We tested the ability of Archease to enable RtcB to use cofactors other than GTP or dGTP. Ligation reaction mixtures with RtcB were set up as described above, and each was divided into two tubes. No Archease was added to one set of reaction mixtures (FIG. 11A), and Archease was added to a concentration of 0.25 μM to the other set (FIG. 11B). The various NTPs were included at a concentration of 100 μM.

Molecule	use as cofactor in ligation of 3′-P and 5′-OH RNA termini [1]	also measured
Nc1ccn([C@@H]2O[C@H](COP(=O)(O)OP(=O)(O)OP(=O)(O)O)[C@@H](O)[C@H]2O)c(=O)n1 [CTP]	unable to substitute for GTP	use as cofactor in RNA ligation with Archease (P. horikoshii RtcB): not
Nc1nc2c(ncn2[C@@H]2O[C@H](COP(=O)(O)OP(=O)(O)O)[C@@H](O)[C@H]2O)c(=O)[nH]1 [GDP]	allowed for low levels of ligation	
Nc1nc2c(ncn2[C@@H]2O[C@H](COP(=O)(O)O)[C@@H](O)[C@H]2O)c(=O)[nH]1 [GMP]	allowed for low levels of ligation	
Nc1nc2c(ncn2[C@@H]2O[C@H](COP(=O)(O)OP(=O)(O)OP(O)(O)=S)[C@@H](O)[C@H]2O)c(=O)[nH]1 [GTPγS]	enabled ligation, albeit at lower efficiency than did GTP	
Nc1nc2c(ncn2C2OC(COP(=O)(O)CP(=O)(O)OP(=O)(O)O)C(O)C2O)c(=O)[nH]1 (stereo not drawn) [GpCpp, guanosine 5′-(α,β-methyleno)-triphosphate]	unreactive; also recorded: did not enable the ligation to proceed	
Nc1nc2c(ncn2[C@@H]2O[C@H](COP(=O)(O)OP(=O)(O)CP(=O)(O)O)[C@@H](O)[C@H]2O)c(=O)[nH]1 [GppCp]	enabled ligation, albeit at lower efficiency than did GTP	
Nc1nc2c(ncn2[C@@H]2O[C@H](COP(=O)(O)OP(=O)(O)NP(=O)(O)O)[C@@H](O)[C@H]2O)c(=O)[nH]1 [GppNHp]	enabled ligation, albeit at lower efficiency than did GTP	
NC(=O)c1ccc[n+]([C@@H]2O[C@H](COP(=O)([O-])OP(=O)(O)OC[C@H]3O[C@@H](n4cnc5c(N)ncnc54)[C@H](O)[C@@H]3O)[C@@H](O)[C@H]2O)c1 [NAD^+]	unable to substitute for GTP	
O=c1ccn([C@@H]2O[C@H](COP(=O)(O)OP(=O)(O)OP(=O)(O)O)[C@@H](O)[C@H]2O)c(=O)[nH]1 [UTP]	unable to substitute for GTP	use as cofactor in RNA ligation with Archease (P. horikoshii RtcB): not
Nc1nc2c(ncn2[C@H]2C[C@H](O)[C@@H](COP(=O)(O)OP(=O)(O)OP(=O)(O)O)O2)c(=O)[nH]1 [dGTP, deoxyguanosine-5′-triphosphate]		use as cofactor in RNA ligation with Archease (P. horikoshii RtcB): enables RtcB to use dGTP efficiently as a cofactor; use as cofactor in RNA ligation (P. horikoshii RtcB; RtcB alone, no Archease, ssRNA 10-nt substrates): ligation activity is reduced substantially; also recorded: at a rate that is much lower than that with GTP; also recorded: ligation efficiency is reduced greatly
B1		ligase activity of RtcB variant ([1]; substitution within predicted metal-binding site): abolished ligase activity
B2		effect of Archease on catalysis of RNA ligation by RtcB (P. horikoshii RtcB; Archease at concentrations lower than RtcB or RNA, GTP 100 μM (FIG. 9)): significantly enhances the catalytic activity of RtcB
B3		ligase activity of RtcB variant (P. horikoshii RtcB; alanine substitution): abolishes ligase activity
